In patent US4434171A, “Dibenzazepine derivatives, pharmaceutical compositions containing them, and pharmaceutical methods using them” (Sandoz Ltd., priority 1980, dated 1984):

How the values were obtained:
[1] = system: spontaneous motor activity in male mice; test: inhibition of spontaneous motor activity in male mice (Caviezel and Baillod); format: in vivo, mouse; conditions: p.o.
Description: In particular, the compounds of the invention are useful as neuroleptic agents in the treatment of e.g. psychotic disturbances such as schizophrenia, as indicated in standard tests, e.g. by an inhibition of spontaneous motor activity in male mice on p.o. administration of from about 1 to about 50 mg/kg animal body weight of the compounds e.g. in accordance with the principles of Caviezel and Baillod (Pharm. Acta Helv. (1958), 33, 465-484).

3H-Spiperone receptors = target: T1, 3H-Spiperone receptors (Bos taurus, UniProt P20288); test: binding to 3H-Spiperone receptors, modified test from J. Leysen et al.; conditions: calf brain striatal tissue; 0.1 nM 3H-Spiperone; 5×10^-7 M Cinanserin; pH 7.7; 40 min at room temperature; read-out: IC50 in the neuroleptic test from J. Leysen (inhibition of specific Spiperone binding)
T1 construct: Fresh calf brain striatal tissue is homogenized; from tissue; host or cells: calf brain striatum membranes
T1 sequence (P20288 whole entry): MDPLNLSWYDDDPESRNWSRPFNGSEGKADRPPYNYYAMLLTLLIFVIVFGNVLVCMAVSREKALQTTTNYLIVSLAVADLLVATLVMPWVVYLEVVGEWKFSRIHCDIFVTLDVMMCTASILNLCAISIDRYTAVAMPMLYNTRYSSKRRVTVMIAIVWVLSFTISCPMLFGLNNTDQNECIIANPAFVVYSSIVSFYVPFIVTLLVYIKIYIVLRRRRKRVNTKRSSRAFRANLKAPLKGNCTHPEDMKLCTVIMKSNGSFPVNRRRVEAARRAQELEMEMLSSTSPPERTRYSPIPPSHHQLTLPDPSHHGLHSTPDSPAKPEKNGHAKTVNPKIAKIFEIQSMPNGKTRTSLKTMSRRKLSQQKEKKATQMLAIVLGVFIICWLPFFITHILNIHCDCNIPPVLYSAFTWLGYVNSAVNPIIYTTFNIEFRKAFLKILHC
Description: Fresh calf brain striatal tissue is homogenized in a 25 fold volume of Tris buffer (50 mM, pH 7.7, 120 mM sodium chloride) and centrifuged. The pellets are resuspended in a 22 fold volume of the Tris buffer, incubated for 15 min. at 37° C., recentrifuged and the pellets resuspended in a 300 fold volume of the Tris buffer. […] After incubation for 40 min. at room temperature, the assay mixtures are rapidly filtered through Whatman GF/B filters and washed twice with 5 ml of ice cold Tris buffer and then scintillation-counted.

- IC50 (3H-Spiperone receptors): 100 nM
Structure (SMILES): CN1CCC(N2Cc3cc(Cl)ccc3Cc3ccccc32)CC1 [Example 1, 8-Chloro-5,6-dihydro-5-(1-methyl-4-piperidinyl)-11H-dibenz[b,e]azepine]
- activity in inhibiting spontaneous motor activity, compared with Clozapine [1]: comparable to that of Clozapine
